{"source": "paper PMC10254852", "about": "“Design, Synthesis and Anticancer Evaluation of Nitroimidazole Radiosensitisers” (Molecules, 2023)", "key": {"HCT116/54C cells [1]": {"test_system": "HCT116/54C cells", "assay": "In vitro cytotoxicity, 4 h exposure oxic/anoxic, 5-day regrowth, sulforhodamine B", "format": "cell-based, human", "settings": "for IC50: Homo sapiens, 4 h exposure, mean ± SEM, n = 3–4"}, "UT-SCC-74B cells": {"test_system": "UT-SCC-74B cells", "assay": "In vitro cytotoxicity, 4 h exposure oxic/anoxic, 5-day regrowth, sulforhodamine B", "format": "cell-based, human", "settings": "for IC50: Homo sapiens, 4 h exposure, mean ± SEM"}, "FaDu cells": {"test_system": "FaDu cells", "assay": "In vitro cytotoxicity, 4 h exposure oxic/anoxic, 5-day regrowth, sulforhodamine B", "format": "cell-based", "settings": "for IC50: Homo sapiens, 4 h exposure, mean ± SEM"}, "HCT116/54C cells [2]": {"test_system": "HCT116/54C cells", "assay": "In vitro radiosensitisation under anoxia, clonogenic survival", "format": "cell-based, human", "settings": "compound 1 mM, radiation dose for 1% survival/radiation dose for 1% survival with compound, mean ± SEM"}, "HCT116/54C tumours": {"test_system": "HCT116/54C tumours", "assay": "Tumour radiosensitisation: ex vivo clonogenic assay", "format": "in vivo, NIH-III mice"}, "UT-SCC-74B tumours": {"test_system": "UT-SCC-74B tumours", "assay": "Tumour radiosensitisation: ex vivo clonogenic assay", "format": "in vivo, NIH-III mice"}, "[3]": {"assay": "Tolerability at maximum achievable dose, i.v.", "format": "in vivo", "settings": "i.v. injection, NIH-III mice", "text": "The most promising 2-nitroimidazole 34 and 5-nitroimidazole 38 compounds were selected for in vivo evaluation on the basis of solubility, in vitro cytotoxicity and radiosensitisation data. These compounds were both well tolerated by i.v. injection in NIH-III mice at their maximum achievable dose (MAD) of 2.2 mmol/kg. This MAD was also achieved for some of our earlier compounds, but only when we employed a phosphate prodrug strategy owing to their poor solubility. […] The Cmax and AUC exceeded that achieved for earlier phosphate prodrugs 9–12, but was less than 2. On this basis we advanced both morpholine analogues into in vivo radiosensitisation studies.\nSpecific pathogen-free six- to eight-week-old female NIH-III mice, bred in the Vernon Jansen Unit, University of Auckland, were used for animal experiments. Animals had ad libitum access to food and water and were maintained in microisolator cages on a 12 h light/dark cycle. All treatments were administered by i.v. injection at a dose of 2.2 mmol/kg and injection volume of 10 mL/kg. Compounds 2, 34 and 38 were administered as solutions in saline containing 1% DMSO or for 9–12 as solutions in saline containing 2 molar equivalents of NaHCO3. Control animals received an i.v. injection of saline at 10 mL/kg. All animal experiments were conducted under the auspices of the University of Auckland Animal Ethics Committee (approval 1781)."}, "[4]": {"settings": "anoxic, n = 3–4, read-out: IC50 Anoxic"}, "[5]": {"settings": "oxic, n = 3–4, read-out: IC50 Oxic"}, "[6]": {"settings": "2.2 mmol/kg i.v. 5 min prior to 10 Gy radiation, surviving fraction after radiation/surviving fraction after drug + radiation"}, "[7]": {"settings": "2.2 mmol/kg i.v. + 10 Gy, one-way ANOVA"}, "[8]": {"settings": "2.2 mmol/kg i.v., 10 Gy, mechanism experiment (Figure 3)"}, "[9]": {"settings": "drug alone 2.2 mmol/kg i.v., relative to untreated tumours"}}, "note": "Like-named read-outs stand apart in the source and are kept apart here."}
{"smiles": "O=[N+]([O-])c1nccn1CS(=O)(=O)NCCN1CCOCC1", "note": "[Compound 34]", "values": [{"measurement": "HCR", "setting": "HCT116/54C cells [1]; HCT116/54C, IC50(oxic)/IC50(anoxic)", "value": 38.8}, {"measurement": "IC50", "setting": "HCT116/54C cells [1]; HCT116/54C, anoxic, read-out: IC50 Anoxic", "value": "170 ± 10", "unit": "µM"}, {"measurement": "IC50", "setting": "HCT116/54C cells [1]; HCT116/54C, oxic, read-out: IC50 Oxic", "value": "6400 ± 1000", "unit": "µM"}, {"measurement": "HCR values in vitro", "setting": "HCT116/54C cells [1]; range across the cell line panel", "value": "23–38"}, {"measurement": "IC50", "setting": "UT-SCC-74B cells; [4]", "value": "510 ± 80", "unit": "µM"}, {"measurement": "IC50", "setting": "UT-SCC-74B cells; [5]", "value": "12600 ± 1800", "unit": "µM"}, {"measurement": "HCR", "setting": "UT-SCC-74B cells; IC50(oxic)/IC50(anoxic)", "value": 24.5}, {"measurement": "IC50", "setting": "FaDu cells; [4]", "value": "160 ± 10", "unit": "µM"}, {"measurement": "IC50", "setting": "FaDu cells; [5]", "value": "3700 ± 100", "unit": "µM"}, {"measurement": "HCR", "setting": "FaDu cells; IC50(oxic)/IC50(anoxic)", "value": 23.3}, {"measurement": "SER at 1 mM", "setting": "HCT116/54C cells [2]", "value": "1.92 ± 0.01"}, {"measurement": "Sensitisation Ratio", "setting": "HCT116/54C tumours; [6]", "value": 14.9}, {"measurement": "enhancement of tumour killing of radiotherapy (RAD vs drug + RAD)", "setting": "HCT116/54C tumours; [7]", "value": "significantly enhanced the tumour killing of radiotherapy"}, {"measurement": "SR, drug given 5 min before radiation", "setting": "HCT116/54C tumours; [8]", "value": 9.76}, {"measurement": "SR, drug given 20 min after radiation", "setting": "HCT116/54C tumours; [8]", "value": 1.49}, {"measurement": "single agent cell kill", "setting": "HCT116/54C tumours; [9]", "value": "62.3 ± 7.9", "unit": "%"}, {"measurement": "Sensitisation Ratio", "setting": "UT-SCC-74B tumours; [6]", "value": 13.8}, {"measurement": "enhancement of tumour cell killing by radiotherapy (RAD vs drug + RAD)", "setting": "UT-SCC-74B tumours; [7]", "value": "significantly enhanced tumour cell killing by radiotherapy"}, {"measurement": "single agent cell kill", "setting": "UT-SCC-74B tumours; [9]", "value": "68.4 ± 1.2", "unit": "%"}, {"measurement": "maximum achievable dose (MAD), well tolerated", "setting": "[3]", "value": 2.2, "unit": "mmol/kg"}]}
